Laboratory results as given in the NIST ThermoML archive (doi:10.1016/j.jct.2016.10.031).

Experiment: molar heat capacity at constant pressure
Settings: 101.33 kPa, Small (less than 1 g) adiabatic calorimetry

CC(C)(C)c1ccc(Oc2ccc([N+](=O)[O-])cc2)cc1 [1-(tert-butyl)-4-(4-nitrophenoxy)benzene]
Settings	molar heat capacity at constant pressure [J/K/mol]
147.54 K, Crystal	187.32
148.06 K, Glass	190.82
148.34 K, Crystal	188.16
148.86 K, Glass	191.65
149.14 K, Crystal	188.9
149.66 K, Glass	192.65
149.94 K, Crystal	189.82
150 K, Crystal	189.82
150.46 K, Glass	193.56
150.74 K, Crystal	190.57
151.26 K, Glass	194.31
151.54 K, Crystal	191.48
152.06 K, Glass	195.14
152.35 K, Crystal	192.31
152.86 K, Glass	195.97
153.15 K, Crystal	193.23
153.66 K, Glass	196.89
153.95 K, Crystal	194.14
154.46 K, Glass	197.88
154.75 K, Crystal	194.81
155.26 K, Glass	198.63
155.55 K, Crystal	195.89
156.06 K, Glass	199.63
156.35 K, Crystal	196.72
156.86 K, Glass	200.38
157.15 K, Crystal	197.47
157.66 K, Glass	201.21
157.95 K, Crystal	198.13
158.46 K, Glass	201.96
158.75 K, Crystal	199.21
159.26 K, Glass	202.87
159.55 K, Crystal	200.21
160 K, Crystal	200.63
160.06 K, Glass	203.79
160.35 K, Crystal	201.13
160.85 K, Glass	204.7
161.15 K, Crystal	202.12
161.95 K, Crystal	202.71
162.45 K, Glass	206.7
162.75 K, Crystal	203.62
163.25 K, Glass	207.28
163.55 K, Crystal	204.37
164.04 K, Glass	208.36
164.35 K, Crystal	205.62
164.84 K, Glass	209.11
165.15 K, Crystal	206.53
165.64 K, Glass	209.94
165.95 K, Crystal	207.36
166.44 K, Glass	210.52
166.75 K, Crystal	208.11
167.23 K, Glass	211.35
167.55 K, Crystal	209.11
168.03 K, Glass	212.35
168.34 K, Crystal	210.11
168.81 K, Glass	213.35
169.14 K, Crystal	210.44
169.61 K, Glass	214.18
169.94 K, Crystal	211.44
170 K, Crystal	211.44
170.41 K, Glass	214.93
170.73 K, Crystal	212.93
171.2 K, Glass	216.18
171.53 K, Crystal	213.1
172 K, Glass	217.01
172.33 K, Crystal	214.01
172.79 K, Glass	217.67
173.12 K, Crystal	214.76
173.59 K, Glass	218.42
173.92 K, Crystal	215.68
174.38 K, Glass	219.58
174.72 K, Crystal	216.59
175.18 K, Glass	220.25
175.51 K, Crystal	218.01
175.97 K, Glass	221.25
176.31 K, Crystal	218.34
176.77 K, Glass	221.83
177.11 K, Crystal	219.25
177.56 K, Glass	222.49
177.91 K, Crystal	219.83
178.36 K, Glass	223.49
178.7 K, Crystal	220.33
179.15 K, Glass	224.32
179.5 K, Crystal	221.5
179.94 K, Glass	224.99
180 K, Crystal	222.33
180.3 K, Crystal	222.33
180.74 K, Glass	225.74
181.08 K, Crystal	223.58
181.52 K, Glass	226.98
181.88 K, Crystal	224.41
182.67 K, Crystal	224.99
183.09 K, Glass	227.73
183.47 K, Crystal	225.82
183.89 K, Glass	229.73
184.26 K, Crystal	226.74
184.68 K, Glass	230.39
185.06 K, Crystal	227.57
185.47 K, Glass	231.56
185.85 K, Crystal	228.48
186.26 K, Glass	232.14
186.65 K, Crystal	229.15
187.05 K, Glass	232.97
187.44 K, Crystal	230.48
187.84 K, Glass	233.97
188.22 K, Crystal	231.31
188.63 K, Glass	234.63
189.02 K, Crystal	232.14
189.42 K, Glass	235.47
189.81 K, Crystal	233.3
190 K, Crystal	233.22
190.21 K, Glass	236.46
190.6 K, Crystal	233.97
190.99 K, Glass	237.29
191.39 K, Crystal	234.63
191.78 K, Glass	237.88
192.19 K, Crystal	235.38
192.57 K, Glass	238.87
192.98 K, Crystal	236.3
193.36 K, Glass	239.79
193.75 K, Crystal	236.96
194.13 K, Glass	240.95
194.54 K, Crystal	237.79
194.91 K, Glass	241.45
195.33 K, Crystal	238.54
195.7 K, Glass	241.95
196.12 K, Crystal	239.46
196.49 K, Glass	243.2
196.91 K, Crystal	240.62
197.27 K, Glass	243.95
197.7 K, Crystal	241.29
198.06 K, Glass	245.11
198.49 K, Crystal	242.12
198.84 K, Glass	245.94
199.28 K, Crystal	243.03
199.63 K, Glass	246.69
200 K, Crystal	244.28
200.07 K, Crystal	244.03
200.62 K, Glass	248.02
201.06 K, Crystal	245.28
202.26 K, Crystal	246.86
203 K, Glass	251.26
203.46 K, Crystal	247.94
204.2 K, Glass	252.18
204.66 K, Crystal	249.18
205.4 K, Glass	253.42
205.86 K, Crystal	250.85
206.6 K, Glass	254.76
207.05 K, Crystal	252.26
207.79 K, Glass	256.09
208.26 K, Crystal	253.26
208.99 K, Glass	257.5
209.45 K, Crystal	254.42
210 K, Crystal	255.34
